Results: patent publication US7541353B2, “Compounds for the treatment of hepatitis C” (Bristol-Myers Squibb Company, priority 2007, dated 2009)
pEC50, pIC50: −log10 of the molar value. Read-outs that look alike come from different tables or passages of the source.

Columns and labels:
HCV NS5B = molecular target: T1, HCV NS5B (Hepatitis C virus genotype 1b, UniProt Q9WMX2); assay: Modified HCV NS5B RdRp enzyme assay (preincubation protocol); format: biochemical
T1 construct: The cDNA encoding the NS5B protein of HCV, genotype 1b; made in house; host or cells: E. coli BL21(DE3)
Experimental: HCV NS5B RdRp cloning, expression, and purification. The cDNA encoding the NS5B protein of HCV, genotype 1b, was cloned into the pET21a expression vector. The protein was expressed with an 18 amino acid C-terminal truncation to enhance the solubility. The E. coli competent cell line BL21(DE3) was used for expression of the protein. Cultures were grown at 37° C. for ˜4 hours until the cultures reached an optical density of 2.0 at 600 nm. The cultures were cooled to 20° C. and induced with 1 mM IPTG. Fresh ampicillin was added to a final concentration of 50 μg/ml and the cells were grown overnight at 20° C.
Cell pellets (3L) were lysed for purification to yield 15-24 mgs of purified NS5B. The lysis buffer consisted of 20 mM Tris-HCl, pH 7.4, 500 mM NaCl, 0.5% triton X-100, 1 mM DTT, 1 mM EDTA, 20% glycerol, 0.5 mg/ml lysozyme, 10 mM MgCl2, 15 ug/ml deoxyribonuclease I, and Complete™ protease inhibitor tablets (Roche). After addition of the lysis buffer, frozen cell pellets were resuspended using a tissue homogenizer. To reduce the viscosity of the sample, aliquots of the lysate were sonicated on ice using a microtip attached to a Branson sonicator. The sonicated lysate was centrifuged at 100,000×g for 1 hr at 4° C. and filtered through a 0.2 μm filter unit (Corning).
The protein was purified using two sequential chromatography steps: Heparin sepharose CL-6B and polyU sepharose 4B (Pharmacia). The chromatography buffers were identical to the lysis buffer but contained no lysozyme, deoxyribonuclease I, MgCl2 or protease inhibitor and the NaCl concentration of the buffer was adjusted according to the requirements for charging the protein onto the column. Each column was eluted with a NaCl gradient which varied in length from 5-50 column volumes depending on the column type. After the final chromatography step, the resulting purity of the enzyme is >90% based on SDS-PAGE analysis. The enzyme was aliquoted and stored at −80° C.
Standard HCV NS5B RdRp enzyme assay. HCV RdRp genotype 1b assays were run in a final volume of 60 μl in 96 well plates (Corning 3600). The assay buffer is composed of 20 mM Hepes, pH 7.5, 2.5 mM KCl, 2.5 mM MgCl2, 1 mM DTT, 1.6 U RNAse inhibitor (Promega N2515), 0.01 mg/ml BSA (Sigma B6917), and 2% glycerol. All compounds were serially diluted (3-fold) in DMSO and diluted further in water such that the final concentration of DMSO in the assay was 2%. HCV RdRp genotype 1b enzyme was used at a final concentration of 28 nM. A polyA template was used at 6 nM, and a biotinylated oligo-dT12 primer was used at 180 nM final concentration. Template was obtained commercially (Amersham 27-4110). Biotinylated primer was prepared by Sigma Genosys. 3H-UTP was used at 0.6 μCi (0.29 μM total UTP). Reactions were initiated by the addition of enzyme, incubated at 30° C. for 60 min, and stopped by adding 25 μl of 50 mM EDTA containing SPA beads (4 μg/μl, Amersham RPNQ 0007). Plates were read on a Packard Top Count NXT after >1 hr incubation at room temperature.
Modified HCV NS5B RdRp enzyme assay. A modified enzyme assay was performed essentially as described for the standard enzyme assay except for the following: The biotinylated oligo dT12 primer was precaptured on streptavidin-coated SPA beads by mixing primer and beads in assay buffer and incubating at room temperature for one hour. Unbound primer was removed after centrifugation. The primer-bound beads were resuspended in 20 mM Hepes buffer, pH 7.5 and used in the assay at final concentrations of 20 nM primer and 0.67 μg/μl beads. Order of addition in the assay: enzyme (1.75 nM) was added to diluted compound followed by the addition of a mixture of template (0.36 nM), 3H-UTP (0.6 μCi, 0.29 μM), and primer-bound beads, to initiate the reaction; concentrations given are final. Reactions were allowed to proceed for 4 hours at 30° C.
IC50 values for compounds were determined using seven different [I]. […]

HCV replicon cells = assay: HCV replicon FRET assay; format: cell-based
Experimental: FRET Assay Preparation. The HCV FRET screening assay was performed in 96-well cell culture plates. The FRET peptide (Anaspec, Inc.) (Taliani et al., Anal. Biochem. 1996, 240, 60-67) contains a fluorescence donor, EDANS, near one end of the peptide and an acceptor, DABCYL, near the other end. The fluorescence of the peptide is quenched by […] resonance energy transfer (RET) between the donor and the acceptor, but as the NS3 protease cleaves the peptide the products are released from RET quenching and the fluorescence of the donor becomes apparent. The assay reagent was made as follows: 5× cell Luciferase cell culture lysis reagent from Promega (#E153A) diluted to 1× with dH2O, NaCl added to 150 mM final, the FRET peptide diluted to 20 μM final from a 2 mM stock.
To prepare plates, HCV replicon cells, with or without a Renilla luciferase reporter gene, were trypsinized and plated in a 96-well plate with titrated test compounds added in columns 3 through 12; columns 1 and 2 contained a control compound (HCV control inhibitor), and the bottom row contained cells with DMSO only. The plates were then placed in a CO2 incubator at 37° C.
Assays. Subsequent to addition of the test compounds described above (FRET Assay Preparation), at various times the plate was removed and Alamar blue solution (Trek Diagnostics, #00-100) was added to measure cellular toxicity. After reading in a Cytoflour 4000 instrument (PE Biosystems), plates were rinsed with PBS and then used for FRET assay by the addition of 30 ul of the FRET peptide assay reagent described above (FRET Assay Preparation) per well. The plate was then placed into the Cytoflour 4000 instrument which had been set to 340 excite/490 emission, automatic mode for up to 20 cycles and the plate read in a kinetic mode. Typically, the signal to noise using an endpoint analysis after the reads was at least three-fold. Alternatively, after Alamar blue reading, plates were rinsed with PBS, then used for luciferase assay using the Promega Dual-Glo Luciferase Assay System or the Promega EnduRen Live Cell Substrate assay.
Compound analysis was performed by quantification of the relative HCV replicon inhibition and the relative cytotoxicity values. To calculate cytoxicity values, the average Alamar Blue fluorescence signals from the control wells were set as 100% non-toxic. The individual signals in each of the compound test wells were then divided by the average control signal and multiplied by 100% to determine […]. To calculate the HCV replicon inhibition values, an average background value was obtained from the two wells containing the highest amount of HCV control inhibitor at the end of the assay period. These numbers were similar to those obtained from naïve Huh-7 cells. The background numbers were then subtracted from the average signal obtained from the control wells and this number was used as 100% activity. The individual signals in each of the compound test wells were then divided by the averaged control values after background subtraction and multiplied by 100% to determine percent activity. EC50 values were calculated as the concentration which caused a 50% reduction in FRET or luciferase activity. The two numbers generated for the compound plate, percent cytoxicity and percent activity, were used to determine compounds of interest for further analysis.

T1 sequence (Q9WMX2 2420-2992): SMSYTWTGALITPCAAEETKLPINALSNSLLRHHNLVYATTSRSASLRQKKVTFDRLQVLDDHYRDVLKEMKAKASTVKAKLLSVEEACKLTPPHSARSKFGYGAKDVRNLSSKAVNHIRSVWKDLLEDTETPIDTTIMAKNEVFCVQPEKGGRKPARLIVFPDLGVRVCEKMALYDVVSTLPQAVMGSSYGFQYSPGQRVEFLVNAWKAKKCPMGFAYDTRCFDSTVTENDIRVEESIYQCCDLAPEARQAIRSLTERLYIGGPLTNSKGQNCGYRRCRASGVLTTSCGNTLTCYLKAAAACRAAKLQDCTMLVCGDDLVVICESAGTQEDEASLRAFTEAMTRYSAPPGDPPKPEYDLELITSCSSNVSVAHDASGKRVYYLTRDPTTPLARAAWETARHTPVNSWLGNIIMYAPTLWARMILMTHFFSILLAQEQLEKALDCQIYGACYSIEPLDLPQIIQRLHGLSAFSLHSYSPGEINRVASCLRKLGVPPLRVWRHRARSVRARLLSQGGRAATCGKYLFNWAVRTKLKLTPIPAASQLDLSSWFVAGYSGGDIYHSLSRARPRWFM

Row | Structure (SMILES) | pIC50 (HCV NS5B) | pEC50 (HCV replicon cells; Hepatitis C virus) | pIC50 (HCV NS5B; preincubation protocol) | pEC50 (HCV replicon cells; FRET assay)
1 | COc1ccc2c(c1)C1CC1(C(=O)N1C3CCC1CC(=O)C3)Cn1c-2c(C2CCCCC2)c2ccc(C(=O)NS(=O)(=O)C3CC3)cc21 (centres unmarked) | 6.30 to 8.34 | – | – | –
2 | COc1ccc2c(c1)C1CC1(C(=O)N1C3CCC1CC(N(C)Cc1ccccc1)C3)Cn1c-2c(C2CCCCC2)c2ccc(C(=O)NS(=O)(=O)N3CCC3)cc21 (centres unmarked) | 6.30 to 8.34 | 6.30 to 8.34 | – | –
3 | COc1ccc2c(c1)C1CC1(C(=O)N1C3CCC1CC(N(C)Cc1ccccc1)C3)Cn1c-2c(C2CCCCC2)c2ccc(C(=O)NS(=O)(=O)N(C)C)cc21 (centres unmarked) | 6.30 to 8.34 | 6.30 to 8.34 | – | –
4 | COc1ccc2c(c1)C1CC1(C(=O)N1C3CCC[C@@H]1COC3)Cn1c-2c(C2CCCCC2)c2ccc(C(=O)NS(=O)(=O)CC(F)(F)F)cc21 (some centres unmarked) | 6.30 to 8.34 | 6.30 to 8.34 | – | –
5 | COc1ccc2c(c1)C1CC1(C(=O)N1C3CCC1CC(NCC1CC1)C3)Cn1c-2c(C2CCCCC2)c2ccc(C(=O)NS(=O)(=O)N(C)C)cc21 (centres unmarked) [drawing 23] | 6.30 to 8.34 | 6.30 to 8.34 | – | –
6 | COc1ccc2c(c1)C1CC1(C(=O)N1C3CCC1CC(NCc1ccccc1)C3)Cn1c-2c(C2CCCCC2)c2ccc(C(=O)NS(=O)(=O)N(C)C)cc21 (centres unmarked) | 6.30 to 8.34 | 6.30 to 8.34 | – | –
7 | COc1ccc2c(c1)[C@@H]1C[C@]1(C(=O)N1C3CCC1CC(C)(O)C3)Cn1c-2c(C2CCCCC2)c2ccc(C(=O)NS(=O)(=O)N(C)C)cc21 (some centres unmarked) [drawing 46] | 6.30 to 8.34 | 6.30 to 8.34 | – | –
8 | COc1ccc2c(c1)C1CC1(C(=O)N1C3CCC1CC(C)(O)C3)Cn1c-2c(C2CCCCC2)c2ccc(C(=O)NS(=O)(=O)N(C)C)cc21 (centres unmarked) | 6.30 to 8.34 | 6.30 to 8.34 | – | –
9 | COc1ccc2c(c1)C1CC1(C(=O)N1C3COCC1COC3)Cn1c-2c(C2CCCCC2)c2ccc(C(=O)NS(=O)(=O)CCC(F)(F)F)cc21 (centres unmarked) | 6.30 to 8.34 | 6.30 to 8.34 | – | –
10 | COc1ccc2c(c1)[C@@H]1C[C@]1(C(=O)N1C3CCC(O)C1CCC3O)Cn1c-2c(C2CCCCC2)c2ccc(C(=O)NS(=O)(=O)N(C)C)cc21 (some centres unmarked) | 6.30 to 8.34 | 6.30 to 8.34 | – | –
11 | COc1ccc2c(c1)C1CC1(C(=O)N1C3CCC1CC(C)(O)C3)Cn1c-2c(C2CCCCC2)c2ccc(C(=O)NS(=O)(=O)N3CCC3)cc21 (centres unmarked) | 6.30 to 8.34 | 6.30 to 8.34 | – | –
12 | COc1ccc2c(c1)C1CC1(C(=O)N1C3CCC[C@@H]1COC3)Cn1c-2c(C2CCCCC2)c2ccc(C(=O)NS(=O)(=O)C3CCCC3)cc21 (some centres unmarked) | 6.30 to 8.34 | 6.30 to 8.34 | – | –
13 | COc1ccc2c(c1)C1CC1(C(=O)N1C3CCCC1COC3)Cn1c-2c(C2CCCCC2)c2ccc(C(=O)NS(=O)(=O)C3CCCCC3)cc21 (centres unmarked) [drawing 54] | – | – | 6.30 to 8.34 | 6.30 to 8.34
14 | COc1ccc2c(c1)C1CC1(C(=O)N1C3CCC1CC(N(CCN(C)C)Cc1ccccc1)C3)Cn1c-2c(C2CCCCC2)c2ccc(C(=O)NS(C)(=O)=O)cc21 (centres unmarked) | 6.30 to 8.34 | 6.30 to 8.34 | – | –
15 | CNC1CC2CCC(C1)N2C(=O)C12CC1c1cc(OC)ccc1-c1c(C3CCCCC3)c3ccc(C(=O)NS(=O)(=O)N(C)C)cc3n1C2 (centres unmarked) [drawing 28] | 6.30 to 8.34 | 6.30 to 8.34 | – | –
16 | COc1ccc2c(c1)C1CC1(C(=O)N1C3CCC1CC(NCC1CC1)C3)Cn1c-2c(C2CCCCC2)c2ccc(C(=O)NS(=O)(=O)N(C)C)cc21 (centres unmarked) [drawing 26] | – | – | 6.30 to 8.34 | 6.30 to 8.34
17 | COc1ccc2c(c1)C=C(C(=O)N1C3CCCC1COC3)Cn1c-2c(C2CCCCC2)c2ccc(C(=O)NS(=O)(=O)C3CC3)cc21 | 6.30 to 8.34 | 6.30 to 8.34 | – | –
18 | COc1ccc2c(c1)C1CC1(C(=O)N1C3CCC1CC3)Cn1c-2c(C2CCCCC2)c2ccc(C(=O)NS(=O)(=O)N3CCN(C)CC3)cc21 (centres unmarked) | 6.30 to 8.34 | 6.30 to 8.34 | – | –
19 | COc1ccc2c(c1)C1CC1(C(=O)N1C3COCC1COC3)Cn1c-2c(C2CCCCC2)c2ccc(C(=O)NS(=O)(=O)CC(F)(F)F)cc21 (centres unmarked) | 6.30 to 8.34 | 6.30 to 8.34 | – | –
20 | COc1ccc2c(c1)C1CC1(C(=O)N1C3CCC1CC(NCc1ccccc1)C3)Cn1c-2c(C2CCCCC2)c2ccc(C(=O)NS(=O)(=O)C(C)C)cc21 (centres unmarked) | 6.30 to 8.34 | 6.30 to 8.34 | – | –
21 | COc1ccc2c(c1)C1CC1(C(=O)N1C3CCC1CC(N(CCN(C)C)Cc1ccccc1)C3)Cn1c-2c(C2CCCCC2)c2ccc(C(=O)NS(=O)(=O)N(C)C)cc21 (centres unmarked) | 6.30 to 8.34 | 6.30 to 8.34 | – | –
22 | CCC(C)S(=O)(=O)NC(=O)c1ccc2c(C3CCCCC3)c3n(c2c1)CC1(C(=O)N2C4CCC[C@@H]2COC4)CC1c1cc(OC)ccc1-3 (some centres unmarked) | 6.30 to 8.34 | 6.30 to 8.34 | – | –
23 | COc1ccc2c(c1)C1CC1(C(=O)N1C3CCC1CC(N(CCN(C)C)Cc1ccccc1)C3)Cn1c-2c(C2CCCCC2)c2ccc(C(=O)NS(=O)(=O)C3CC3)cc21 (centres unmarked) | 6.30 to 8.34 | 6.30 to 8.34 | – | –
24 | CNC1CC2CCC(C1)N2C(=O)C12CC1c1cc(OC)ccc1-c1c(C3CCCCC3)c3ccc(C(=O)NS(=O)(=O)N(C)C)cc3n1C2 (centres unmarked) [drawing 29] | – | – | 6.30 to 8.34 | 6.30 to 8.34
